Drawing on publication PMC7838546, “A Thermostable, Modified Cathelicidin-Derived Peptide With Enhanced Membrane-Active Activity Against Salmonella enterica serovar Typhimurium” (Frontiers in Microbiology, 2021), this text covers Cell viability for 1 compound.

The test system of the data set is L929 mouse fibroblast cells. Description: Cytotoxicity assay (MTT). The format is cell-based. The following applies: 24 h, 62.5 μg/ml. On the procedure: The toxicity of P7 peptide on L929 mouse fibroblast cells was assessed by a dye reduction assay using 3-(4,5 dimethylthiazol-2-yl)-2,5-diphenyltetrazolium bromide (MTT). Briefly, 3 × 10^4 L929 cells in RPMI 1640 [supplemented with 10% (v/v) fetal bovine serum, 0.2% (w/v) sodium bicarbonate, 2 mM L-glutamine, 100 U/ml penicillin and […] streptomycin] were seeded into each well of 96-well plates and then incubated in a humidified atmosphere with 5% CO2 at 37°C for 24 h. After the incubation period, the peptide was added to obtain final concentrations of 0.98–250 μg/ml; plates were incubated at 37°C under 5% CO2 for 24 h. RPMI 1640 medium with and without cells were used as positive and negative controls, respectively. After incubation, a final concentration of 0.5 mg/ml MTT (Sigma-Aldrich, MO, United States) was added and incubated at 37°C under 5% CO2 for 4 h. Then, the supernatants were removed from each well and 150 μl of dimethyl sulfoxide (DMSO) was added and mixed thoroughly to solubilize the formazan crystals. Subsequently, absorbance was measured at 570 nm using a microplate reader. The cell viability (%) was calculated according to the formula:
%Cellviability=ODTreated-ODBlank/ODUntreated-ODBlank×100

With `CC[C@H](C)[C@H](NC(=O)CN)C(=O)NCC(=O)N[C@@H](C)C(=O)N[C@H](C(=O)N[C@@H](CC(C)C)C(=O)N[C@@H](CCCCN)C(=O)N[C@H](C(=O)N[C@@H](CC(C)C)C(=O)N[C@H](C(=O)N[C@H](C(=O)NCC(=O)N[C@@H](CC(C)C)C(=O)N1CCC[C@H]1C(=O)N[C@@H](C)C(=O)N[C@@H](CC(C)C)C(=O)N[C@H](C(=O)N[C@@H](CO)C(=O)N[C@@H](Cc1c[nH]c2ccccc12)C(=O)N[C@H](C(=O)N[C@@H](CCCCN)C(=O)N[C@@H](CCCNC(=N)N)C(=O)N[C@@H](CCCCN)C(=O)N[C@@H](CCCNC(=N)N)C(=O)N[C@@H](CCC(N)=O)C(=O)N[C@@H](CCC(N)=O)C(N)=O)[C@@H](C)CC)[C@@H](C)CC)[C@@H](C)O)[C@@H](C)O)C(C)C)C(C)C` [Melittin, reference compound], the Cell viability result is listed as “less than 10%”.
